# Results published in patent publication US12097260B2, “Temperature-responsive degradable hydrogels” (priority 2017, dated 2024).
# Where two headings read alike, the source gives them in different places.
# How the values were obtained:
# [1] = Effect of comonomers on LCST (slope of LCST vs. mol %); format: physicochemical; conditions: comonomer in NIPAAm-based temperature-responsive polymers
# From the text: The effect on LCST of a comonomer can be determined by preparing polymers with varying content and evaluating the slope of a line of best fit for the plot of LCST vs. mol % X, where X is the comonomer.
# [2] = Degradation vs. incubation temperature in 0.2 M phosphate buffer (accelerated stability method); format: physicochemical
# Experimental: A high concentration of phosphate ions is known to decrease the LCST, an effect known as “salting-out.” Thus, the LCST values measured in this study are lower than for the same polymer in PBS. The polymer was dissolved at 3 mg/mL in 0.2 M phosphate buffer (pH 7.4). […] The buffer was not replaced. This was done to maintain a controlled experiment between temperatures because the samples at low temperatures contained polymer solution, preventing exchange of the buffer. Tubes contained transparent solution at 4° C. and slightly turbid solution at 22° C. Samples incubated at 40-80° C. formed opaque, milky solutions immediately upon heating. After overnight storage, samples incubated at 40-80° C. contained a separated solid precipitate phase at the bottom of the tube, and transparent overlying buffer. […] The LCST of each sample was determined using a cloud point method. […] At each temperature, the absorbance of the solution was measured using a spectrophotometer (450 nm). The temperature at which the absorbance was half of the maximum value was recorded as the LCST. […] For temperatures at which 30° C. was not measured, linear interpolation between the nearest two data points was used to calculate the time at which LCST reached 30° C. […] A separate study evaluated the polymer PNJ1.3-DB20 using the same methods with incubation at 4, 37, 60, and 80° C. in 0.2 M phosphate buffer (pH 7.4). […]
# [3] = Solubility in water; format: physicochemical
# [4] = system: S. aureus ATCC 49230; experiment: Rabbit infection treatment model; format: in vivo; conditions: comparator treatments
# Experimental: The present studies utilized the same rabbit infection treatment model initially adapted from Nelson and colleagues delivering tobramycin mixed into the hydrogel by the methods described herein. Twenty rabbits were infected with S. aureus ATCC 49230 and six rabbits were infected with MRSA ATCC BAA-1556. The polymer used in the hydrogels was PNJ18-DBLA with the composition reported in Table 34, and the hydrogel contained 3.14 wt % tobramycin as an active agent which was dissolved separately at the time of use and mixed with polymer solution by end-to-end syringe mixing.
# [5] = system: Ten laboratory standard bacterial strains; experiment: MBEC summary over the bacterial strains tested; format: cell-based; conditions: for Strains with MBEC>1,000 μg/mL: 24 and 72 hr exposure
# Experimental: Ten laboratory standard bacterial strains intended to represent the spectrum of pathogens found in surgical site infections were evaluated: 3 S. aureus (2 methicillin-resistant, 1 methicillin-sensitive), 4 S. epidermidis (1 methicillin-resistant, 3 methicillin-sensitive), K Faecalis, P. Aeruginosa, and E. Coli (ATCC #BAA-1556, BAA-1680, 49230, 35984, 29886, 700583, 14990, 29212, 27853, and 25922). Both MRSA strains tested (BAA-1556, BAA-1680) are susceptible or intermediately susceptible to both TOB and VANC. S. epidermidis (35984), P. aeruginosa (27853), and E. faecalis (29212) are tobramycin-resistant. None of the gram-positive organisms tested are resistant to vancomycin. Vancomycin is not effective against gram-negative bacteria (E. coli, P. aeruginosa).
# (§1) In each series of specimens for a given strain, antimicrobial treatment, and exposure time, the lowest antimicrobial concentration showing no growth after 21 day subculture was measured to be the MBEC. If all subcultures were positive, the MBEC was determined to be >4000 μg/mL. Selected positive subcultures were confirmed by culture identification at a third-party diagnostic laboratory.
# [6] = system: S. epidermidis (700583); experiment: Minimum biofilm eradication concentration (MBEC) on rabbit muscle; format: cell-based
# Experimental: (§2) MBEC of biofilms grown on rabbit muscle specimens in vitro was determined. The goal of the study was to compare the relative spectrum of antimicrobial activity of TOB and VANC either alone or in combination. […] This method also allows for controlled culture conditions and quantitative data without confounding phenomena that would be present in an animal model of infection such as variability throughout a single infection, host immune function, and release/transport of antimicrobials.
# (§3) Aseptically obtained rabbit muscle samples (˜40 mg) were incubated in bacterial suspension for 3 days to allow biofilm growth. Tissue specimens were then rinsed and placed in separate wells of a 96-well plate. Medium containing various concentrations of antimicrobials (4000, 2000, 1000, 750, 500, 250, 125, 64, 32, 16, and 0 μg/mL) were then added to the wells containing the contaminated tissue samples. Plates were then incubated for either 6, 24, or 72 hours at 37° C. Following this “exposure time,” the antimicrobial-containing medium was removed and specimens were rinsed with antimicrobial-free growth medium at least 4 times to remove any residual antimicrobials. Then the specimens were subcultured in separate test tubes containing antimicrobial-free medium and incubated at 37° C.
# as §1
# [7] = system: S. epidermidis (29886); experiment: as above; format: cell-based
# Experimental: as §2, §3, §1
# [8] = system: S. aureus (BAA 1556); experiment: as above; format: cell-based
# Experimental: as §2, §3, §1
# [9] = system: S. aureus (49230); experiment: as above; format: cell-based
# Experimental: as §2, §3, §1
# [10] = system: S. epidermidis (35984); experiment: as above; format: cell-based
# Experimental: as §2, §3, §1
# [11] = system: S. aureus (BAA 1680); experiment: as above; format: cell-based
# Experimental: as §2, §3, §1
# [12] = system: P. aeruginosa (27853); experiment: as above; format: cell-based
# Experimental: as §2, §3, §1
# [13] = system: E. faecalis (29212); experiment: as above; format: cell-based
# Experimental: as §2, §3, §1
# [14] = system: E. coli (25922); experiment: as above; format: cell-based
# Experimental: as §2, §3, §1
# [15] = dog, in vivo; cited from earlier work
# [16] = cited from earlier work
# [17] = Stability of hydrophobic comonomers in 95° C. stress conditions, pH 4, titration; format: physicochemical; conditions: up to 14 days at 95° C.
# Experimental: Stability of additional monomers was also evaluated in 95° C. stress conditions as hydrophobic monomers with the function of decreasing the LCST. […] The polymers were dissolved at 50 mg/mL in 0.2 M sodium acetate-acetic acid buffer (pH 4). Separate samples of 5 mL each were incubated at 95° C. for 0, 2, 4, 7, or 14 days to evaluate stability of the hydrophobic monomers, as NIPAAm and JAAm are known to be relatively stable in these conditions. After the designated time, samples were cooled and stirred to re-dissolve the polymer, and the solution was dialyzed to remove salts and any degradants. Then 100 mg of the recovered material for each sample was dissolved in 10 mL deionized water and evaluated for acid content by titration using phenolphthalein as the indicator and 1 mM NaOH as the titrant. The titration data were corrected against a control sample which contained only deionized water, as about 0.9 mL of titrant in 10 mL was required for the indicator to change color.
molecule,measurement,setting,value
C=CC(=O)O [Acrylic acid],Effect on LCST,[1],+2.6 ° C./mol %
poly(NIPAAm-co-DBLA-co-JAAm) [PNJ18-DBLA],"Degradation at 22° C., times faster than at 4° C.",[2],3.63 times
same,"Degradation at 80° C., times faster than at 40° C.",[2],11.67 times
"C=CC(=O)NC(C)(C)C [Tert-butyl acrylamide, tert-butyl acrylamide]",Effect on LCST,[1],−0.41 ° C./mol %
"NC[C@H]1O[C@H](O[C@H]2[C@H](O)[C@@H](O[C@H]3O[C@H](CO)[C@@H](O)[C@H](N)[C@H]3O)[C@H](N)C[C@@H]2N)[C@H](N)C[C@@H]1O [TOB, tobramycin]",Solubility in aqueous solutions,[3]; over a range of pH values,> 30 wt %
same,Rabbits that remained infected,[4],4/7
same,"Strains with MBEC>1,000 μg/mL",[5],3 strains
same,# Strains w/ MBEC ≥1000 μg/mL,[5]; 6 hr exposure,5/10
same,# Strains w/ MBEC ≥1000 μg/mL,[5]; 24 hr exposure,3/10
same,Max. MBEC,[5]; 24 hr exposure,>4000 µg/mL
same,Median MBEC,[5]; 24 hr exposure,250 µg/mL
same,# Strains w/ MBEC ≥1000 μg/mL,[5]; 72 hr exposure,3/10
same,MBEC,[6]; 6 hr exposure,125 µg/mL
same,MBEC,[6]; 24 hr exposure,250 µg/mL
same,MBEC,[6]; 72 hr exposure,375 µg/mL
same,MBEC,[7]; 6 hr exposure,125 µg/mL
same,MBEC,[7]; 24 hr exposure,125 µg/mL
same,MBEC,[7]; 72 hr exposure,31 µg/mL
same,MBEC,[8]; 6 hr exposure,2000 µg/mL
same,MBEC,[8]; 24 hr exposure,375 µg/mL
same,MBEC,[8]; 72 hr exposure,250 µg/mL
same,MBEC,[9]; 6 hr exposure,500 µg/mL
same,MBEC,[9]; 24 hr exposure,375 µg/mL
same,MBEC,[9]; 72 hr exposure,250 µg/mL
same,MBEC,[10]; 6 hr exposure,>4000 µg/mL
same,MBEC,[10]; 24 hr exposure,>4000 µg/mL
same,MBEC,[10]; 72 hr exposure,>4000 µg/mL
same,MBEC,[11]; 6 hr exposure,>4000 µg/mL
same,MBEC,[11]; 24 hr exposure,>4000 µg/mL
same,MBEC,[11]; 72 hr exposure,4000 µg/mL
same,MBEC,[12]; 6 hr exposure,2000 µg/mL
same,MBEC,[12]; 24 hr exposure,375 µg/mL
same,MBEC,[12]; 72 hr exposure,62 µg/mL
same,MBEC,[13]; 6 hr exposure,>4000 µg/mL
same,MBEC,[13]; 24 hr exposure,>4000 µg/mL
same,MBEC,[13]; 72 hr exposure,>4000 µg/mL
same,MBEC,[14]; 6 hr exposure,250 µg/mL
same,MBEC,[14]; 24 hr exposure,62 µg/mL
same,MBEC,[14]; 72 hr exposure,62 µg/mL
CCCCN1CCCCC1C(=O)Nc1c(C)cccc1C (stereo not drawn) [bupivacaine],Toxic systemic levels,[15],"1,000-2,000 ng/mL"
same,Water solubility,[16],approximately 200 μg/mL
same,Water solubility,[16]; higher pH above 7.64,less than 0.1 wt %
same,Water solubility,[16]; pH≈6,2-5 wt %
"CN[C@H](CC(C)C)C(=O)N[C@H]1C(=O)N[C@@H](CC(N)=O)C(=O)N[C@H]2C(=O)N[C@H]3C(=O)N[C@H](C(=O)N[C@H](C(=O)O)c4cc(O)cc(O)c4-c4cc3ccc4O)[C@H](O)c3ccc(c(Cl)c3)Oc3cc2cc(c3O[C@@H]2O[C@H](CO)[C@@H](O)[C@H](O)[C@H]2O[C@H]2C[C@](C)(N)[C@H](O)[C@H](C)O2)Oc2ccc(cc2Cl)[C@H]1O [VANC, vancomycin]",Maximum solubility,[3]; about pH 3,~19 wt %
same,Solubility,[3]; pH 4-7.4,≤ 2 wt %
same,"Strains with MBEC>1,000 μg/mL",[5],6 strains
same,# Strains w/ MBEC ≥1000 μg/mL,[5]; 6 hr exposure,8/10
same,# Strains w/ MBEC ≥1000 μg/mL,[5]; 24 hr exposure,6/10
same,Max. MBEC,[5]; 24 hr exposure,>4000 µg/mL
same,Median MBEC,[5]; 24 hr exposure,750 µg/mL
same,# Strains w/ MBEC ≥1000 μg/mL,[5]; 72 hr exposure,6/10
same,MBEC,[6]; 6 hr exposure,1000 µg/mL
same,MBEC,[6]; 24 hr exposure,1000 µg/mL
same,MBEC,[6]; 72 hr exposure,1000 µg/mL
same,MBEC,[7]; 6 hr exposure,375 µg/mL
same,MBEC,[7]; 24 hr exposure,375 µg/mL
same,MBEC,[7]; 72 hr exposure,375 µg/mL
same,MBEC,[8]; 6 hr exposure,4000 µg/mL
same,MBEC,[8]; 24 hr exposure,2000 µg/mL
same,MBEC,[8]; 72 hr exposure,1000 µg/mL
same,MBEC,[9]; 6 hr exposure,>4000 µg/mL
same,MBEC,[9]; 24 hr exposure,>4000 µg/mL
same,MBEC,[9]; 72 hr exposure,2000 µg/mL
same,MBEC,[10]; 6 hr exposure,4000 µg/mL
same,MBEC,[10]; 24 hr exposure,750 µg/mL
same,MBEC,[10]; 72 hr exposure,375 µg/mL
same,MBEC,[11]; 6 hr exposure,4000 µg/mL
same,MBEC,[11]; 24 hr exposure,2000 µg/mL
same,MBEC,[11]; 72 hr exposure,2000 µg/mL
same,MBEC,[12]; 6 hr exposure,>4000 µg/mL
same,MBEC,[12]; 24 hr exposure,>4000 µg/mL
same,MBEC,[12]; 72 hr exposure,>4000 µg/mL
same,MBEC,[13]; 6 hr exposure,1000 µg/mL
same,MBEC,[13]; 24 hr exposure,375 µg/mL
same,MBEC,[13]; 72 hr exposure,250 µg/mL
same,MBEC,[14]; 6 hr exposure,>4000 µg/mL
same,MBEC,[14]; 24 hr exposure,>4000 µg/mL
same,MBEC,[14]; 72 hr exposure,>4000 µg/mL
"C=CC(=O)OCCCC [Butyl acrylate, butyl acrylate]",Effect on LCST,[1],−0.44 ° C./mol %
"C=CC(=O)OC1C(=O)OCC1(C)C (stereo not drawn) [DBLA, dimethyl butyrolactone acrylate]",Effect on LCST,[1],−1.8 ° C./mol %
"C=C(C)C(=O)OCCCC [BMA, butyl methacrylate]",Effect on LCST,[1],−0.62 ° C./mol %
"C=CC(=O)NC1C(=O)OCC1(C)C (stereo not drawn) [DBLAAm, dimethyl butyrolactone acrylamide]",Effect on LCST,[1],−0.51 ° C./mol %
"C=CC(=O)OC(C)(C)C [Tert-butyl acrylate, tert-butyl acrylate]",Initial structure retained,[17],poorest stability
same,Effect on LCST,[1],−0.69 ° C./mol %
